{
  "source": "patent US20190100761A1",
  "about": "“COMPOSITIONS AND METHODS FOR ENHANCED GENE EXPRESSION AND VIRAL REPLICATION” (priority 2016, published 2019)",
  "key": {"[1]": {"system": "HIV-1 NL4-3", "assay_type": "cell-based", "details": "50 μM DAA, CEM-SS cells, Western at 72 hpi"}, "[2]": {"system": "m^6A levels in total poly(A)+ RNA", "assay_type": "cell-based, human", "details": "50 μM DAA, CEM-SS cells, dot blot"}, "[3]": {"system": "CEM-SS cells"}, "[4]": {"system": "RSV", "details": "literature report; cited from earlier work"}, "[5]": {"system": "IAV", "details": "literature report; cited from earlier work"}, "[6]": {"system": "HIV-1", "details": "literature report; cited from earlier work"}, "[7]": {"system": "m^6A addition to mRNA substrates", "details": "by blocking the hydrolysis of S-adenosylhomocysteine; literature; cited from earlier work"}},
  "data": [
    {"compound": "Nc1nccc2c1ncn2[C@@H]1O[C@H](CO)[C@@H](O)[C@H]1O", "note": "[DAA, 3-deazaadenosine]", "values": [
      {"measurement": "replication of HIV-1", "setting": "[1]", "value": "effectively inhibited"},
      {"measurement": "m^6A levels in total poly(A)+ RNA", "setting": "[2]", "value": "significant decline"},
      {"measurement": "cell growth or viability", "setting": "[3]; 50 μM DAA, four day treatment period, CEM-SS cells", "value": "did not reduce cell growth or viability"},
      {"measurement": "total level of cellular protein (BCA assay) in HIV-1 infected cultures", "setting": "[3]; presence or absence of DAA, CEM-SS cell pellets", "value": "similar"},
      {"measurement": "replication of RSV", "setting": "[4]", "value": "inhibit the replication"},
      {"measurement": "replication of IAV", "setting": "[5]", "value": "inhibit the replication"},
      {"measurement": "replication of HIV-1", "setting": "[6]", "value": "inhibit the replication"},
      {"measurement": "m^6A addition to mRNA substrates", "setting": "[7]", "value": "block m^6A addition"}
    ]}
  ]
}
